The subject of test [1] is MDA(Malondialdehyde). In words: Malondialdehyde measurement after partial ischemia and reperfusion. The settings on record: cerebral cortex; 30 min ischemia, 3 hours reperfusion; 3-week treatment; mean±S.E. (n=6).
Test [2] has as its system glutathione(GSH) peroxidase. The experiment in a line: Glutathione peroxidase activity after partial ischemia and reperfusion. The conditions noted are these: cerebral cortex; 30 min ischemia, 3 hours reperfusion; 3-week treatment; mean±S.E. (n=6).
The subject of test [3] is rats with memory loss induced by scopolamine. In words: Passive avoidance response test (step-through shuttle box). The test is classed as in vivo, Sprague-Dawley rats. The settings on record: selegiline 2 mg/kg/day and/or Ginkgo biloba extract 48 mg/kg/day p.o. for 3 weeks; scopolamine 6 mg/kg; Figure 1. As to the method: (§1) To evaluate effects on memory and learning functions, rats of each group were challenged with injection of scopolamine, a drug which cause memory loss and then, subjected to the following tests.
Rats of each group were previously subjected to the adaptation training and subsequent exercises in a shuttle box of step-through type. In the real experiment, scopolamine at a dose of 6 mg/kg was given intraperitoneally and, after 30 minutes, passive avoidance responses were determined. Longer latency in response time indicate improved memory and learning fuctions.
In a step-through passive avoidance test, rats of both normal and test group treated with drugs for 3 weeks were put in a shuttle box and tested for latency time required for avoidance response after being given with scopolamine injection to induce memory loss and the results are shown in Figure 1.

Test [4] deals with pyramidal neuronal cells at CA1 (Ammon's horn) area of the hippocampus. The experiment in a line: Histopathological examination of hippocampus after complete ischemia and reperfusion (cresyl-violet staining). The test is classed as in vivo, Mongolian gerbil. As to the method:
Gerbils of both control and test groups were anesthetized with injection of pentobarbital sodium at a dose of 50 mg/kg and the carotid arteries on both sides were closed for 5 minutes to induce complete ischemia. After 7 days from initiation of reperfusion, tissues were examined by means of cresyl-violet staining.
Tissue examination under cresyl-violet staining mentioned above was done as follows. Excised cerebellum was cut into slices using sliding microtome and the slices were treated sequentially with xylene and alcohol for five minutes and finally, soaked into distilled water for another 5 minutes. Then, the slice was stained with cresyl-violet which had been prepared in advance.
After staining, the slice was washed one time for 30 minutes with flowing water, followed by dehydrating in alcohol and subsequent two time washings with xylene for 10 minutes. Then, a cover glass was placed on and the specimen was examined under optical microscope.
In the cases of complete ischemia and subsequent reperfusion, biochemical changes will appear initially but some morphological changes may result after a few days. […]

Test [5] concerns SOD(Superoxide dismutase). The experiment in a line: SOD activity after partial ischemia and reperfusion. It is filed as in vivo, Sprague-Dawley rats. The conditions noted are these: cerebral cortex; 30 min ischemia, 3 hours reperfusion; 3-week treatment; mean±S.E. (n=6). On the procedure: The supernatant was used as sample.
Previously, a test tube containing 2.3 mℓ of phosphate buffer with pH 7.8, 300 µℓ of 0.5 mM Na-xanthine, 100 µℓ of 50 µm K-cyanide and 100 µℓ of 2.4 mM Na-deoxycholate was prepared and kept in a water bath of 25 °C. To this test tube, 300 µℓ of 0.1 mM ferricytochrome and sample were added.
Then. the solution was transferred to a cell, 100 µℓ of xanthine oxidase was added, a sealing tape was placed on the cell and, while closing well with fingers, the cell was carefully shaken to mix. Changes in absorbance were measured and recorded for one minute at the wavelength of 550 nm.

Test [6] relates to rats with memory loss induced by scopolamine. The experiment in a line: 8-arm radial maze test. It is filed as in vivo, Sprague-Dawley rats. The settings on record: selegiline 2 mg/kg/day and/or Ginkgo biloba extract 48 mg/kg/day p.o. for 3 weeks; scopolamine 6 mg/kg; compared with control group; Figure 2. On the procedure: as §1
According to 01 ton and Samuelson methods[J. Exp. Psychol. Anim. Behav. Proc. 2, 97(1976)], 8-arm radial maze test system was used. That is, rats of each group were placed in the center of the eight 65-cm arms of the maze test system, which are radially stretched, and 45 mg each of pellet type feed was placed at the end of each arm. Rats were trained to visit the arm-ends to get the pellet type feeds. In real experiment, rats were pre-treated with intraperitoneal injection of scopolamine at a dose of 6 mg/kg as a challenge and subjected to the test after 30 minutes from injection.
Test was repeated for fifty(50) times. Smaller visit errors indicate gained improvements in memory and learning functions.
In order to induce memory loss, scopolamine was injected to the rats of both normal and test groups which received drug treatment for 3 weeks and then the rats were placed in the center of the 8-arm maze test system to record numbers of visit errors to the respective arms.

The test system of test [7] is cerebral cortex of ischemic rats. The experiment in a line: Energy metabolites in the cerebral cortex in partial ischemia. The conditions noted are these: 3-week treatment, mean±S.E. (n=6).
For test [8], the system named is cerebral cortex of ischaemic rats. The experiment in a line: Dopamine and its metabolites concentrations in partial ischemia (HPLC-ECD). The settings on record: vs control, Figure 3.

One compound from EP1171146B1, “PHARMACEUTICAL CO[…] GINKGO BILOBA EXTRACT USEFUL FOR TREATING DEMENTIA” (priority 1999, dated 2000) can be followed below.

Turning to `C#CCN(C)[C@H](C)Cc1ccccc1` [Selegiline], in test [1], the MDA worked out at 1.80±0.22 nmol/mg protein. This compound had a GSH peroxidase in test [2] of 2.04±0.22 units/mg protein. Further, the “avoidance response time (latency)” value in test [3] is “significant increase”. For the same compound, the “protection of pyramidal cells at CA1 Ammon's horn site of the hippocampus” value in test [4] (5 min complete ischemia, 7 days reperfusion, 3-week treatment, Figures 4e-4j) was “did not show any effects of significance for protection of the cells”. The “Nerve Cell Density” value in test [4] (CA1 site of the hippocampus, mean ± standard error (n=3-4)) was 45±10 /mm. The same compound yielded an SOD activity in test [5] of 0.42±0.04 units/mg protein. Further, in test [6], the visit errors entry was “tended to decrease”. Besides, in test [7], the ATP turned out to be 1.12±0.04 µmol /g wet wt, the Glucose is recorded as 1.21 ±0.02 µmol/g wet wt, the Lactate was found to be 5.42±0.15 µmol/g wet wt and the Pyruvate worked out at 0.10±0.011 µmol/g wet wt. Further, in test [8] (3-week p.o. selegiline 2 mg/kg/day and/or Ginkgo biloba extract 48 mg/kg/day), the content of dopamine entry is recorded as “significant increases”. Besides, the “contents of HVA(Homovanillic acid)” value in test [8] (3-week p.o. treatment) was “decreased significantly”.
